Here are results for one compound from patent EP4463162B1, “CONNEXIN 43 FOR USE IN TREATING BRCA1/2-MUTATED CANCER” (Fundación Profesor Novoa Santos, priority 2022, dated 2023).

Structures are written as SMILES.

Test [1] has as its system HCC1937 cells. The test is described as follows: Intracellular reactive oxygen species (ROS) measurement (DCFDA). It is filed as cell-based, human. Conditions: 96 h. On the procedure:
Then, ROS production was determined using the DCFDA/H2DCFDA - Cellular ROS Assay Kit (Abcam) following manufacturer's instructions. […] Afterwards, all cell conditions were washed with 100 µL/well of 1X Buffer and then stained with 100 µL/well of 25 µM 2',7' -dichlorofluorescin diacetate (DCFDA) working solution for 45 min at 37 °C in the dark. DCFDA is a fluorogenic dye, deacetylated by cellular esterases to a non-fluorescent compound, eventually oxidized by ROS into the highly fluorescent 2', 7' -dichlorofluorescein (DCF). DCFDA solution was removed and cells were washed once with phenol red-free DMEM with 10 % FBS. They were left for 1 h at 37 °C and fluorescence was measured in a Synergy HTX plate reader (BioTek) at 485/+-20 nm (excitation) and 528/+-20 nm (emission).
After ROS measurement, CCK-8 proliferation assay was performed. Briefly, medium was removed and replenished with 100 µL/well of complete RPMI. 10 µL of CCK-8 reagent were added to each well, and cells were incubated at 37 °C in the dark for 3 h. Absorbance was measured at 450 nm in a NanoQuant Infinite 200 plate reader (Tecan).
Background fluorescence of phenol red-free DMEM with 10 % FBS was subtracted from all ROS fluorescence values, which were then normalized against their respective proliferation absorbance values. Each experimental condition was further normalized against its untreated counterpart. […]

The subject of test [2] is HCC1937 cells. In words: Proliferation assay (Cell Counting Kit-8). Conditions: Cx43_HCC1937 compared to EV_HCC1937; 100 and 200 µM olaparib, over 96 h, all concentrations and time points. In kind it is cell-based, human. How it is done:
Proliferation of tumour cell lines was evaluated using the Cell Counting Kit-8 (Dojindo Molecular Technologies). This kit comprises WST-8, a highly water-soluble tetrazolium salt, which upon reduction by cellular dehydrogenases of viable cells, gives rise to a yellow formazan dye that is solube in cell culture media and can be quantitated. Briefly, similar number of cells (1 000-5 000) were plated in 96-well plates (Corning) and left to grow for the desired time period under different treatment conditions. Then, medium was renewed (100 µL volume/well) and 10 µL of CCK-8 reagent were added to each well. Plates were incubated in the dark for 3 h at 37 °C, and absorbance was measured at 450 nm in a NanoQuant Infinite 200 plate reader (Tecan).
Cell viability was either relativized to untreated controls for each cell line at each time point, in order to account for the already reduced proliferation of Cx43-restituted cells (top graph) or reported as raw absorbance value (bottom graph).
To further characterize its involvement in BRCA1/2 mutated cancer, Cx43 was restituted by plasmid transfection in BRCA1 mutated TNBC and ovarian carcinoma cell lines, HCC1937 and SNU251, respectively. […]

Consider `O=C(c1cc(Cc2n[nH]c(=O)c3ccccc23)ccc1F)N1CCN(C(=O)C2CC2)CC1` [Olaparib, olaparib], for which the ROS production result in test [1] (Cx43_HCC1937, olaparib 50 and 100 µM) is given as “increased”; in test [1] (EV_HCC1937, olaparib 50 and 100 µM, dose-dependent), “diminished”. Also, the “cell viability (proliferation assay)” value in test [2] is “robust and significant decrease in cell viability”.
